Values of other authors, collected in patent US20110275649A1, “Combination therapy for the prevention of statin induced diabetes” (Palmetto Pharmaceuticals LLC, priority 2010, published 2011).

What was measured:
[1] = compared with pravastatin
[2] = system: carnitine palmitoyltransferase-1: CPT-1; settings: in vitro studies; e.g. by inhibition of CPT-1
CYP3A4 = CYP3A4 (Homo sapiens, UniProt P08684)
late sodium channel = late sodium channel (Homo sapiens, UniProt Q14524)
[3] = JUPITER trial
[4] = system: 3-keto-CoA-thiolase, or 3-KAT

Chain of CYP3A4 (P08684 whole entry): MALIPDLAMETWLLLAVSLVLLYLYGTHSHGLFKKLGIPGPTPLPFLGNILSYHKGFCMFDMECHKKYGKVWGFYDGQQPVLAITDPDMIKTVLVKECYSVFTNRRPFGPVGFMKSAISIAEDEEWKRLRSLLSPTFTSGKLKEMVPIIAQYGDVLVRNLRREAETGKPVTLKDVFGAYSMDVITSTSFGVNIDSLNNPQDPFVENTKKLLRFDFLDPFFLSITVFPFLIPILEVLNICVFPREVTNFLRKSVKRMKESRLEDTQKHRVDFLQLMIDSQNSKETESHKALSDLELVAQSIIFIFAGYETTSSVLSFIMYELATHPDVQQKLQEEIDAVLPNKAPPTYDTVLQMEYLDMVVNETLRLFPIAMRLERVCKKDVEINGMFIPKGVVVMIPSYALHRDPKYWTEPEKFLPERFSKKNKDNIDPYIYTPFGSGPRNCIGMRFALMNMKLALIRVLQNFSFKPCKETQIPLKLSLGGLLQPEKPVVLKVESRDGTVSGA
Chain of late sodium channel (Q14524 whole entry): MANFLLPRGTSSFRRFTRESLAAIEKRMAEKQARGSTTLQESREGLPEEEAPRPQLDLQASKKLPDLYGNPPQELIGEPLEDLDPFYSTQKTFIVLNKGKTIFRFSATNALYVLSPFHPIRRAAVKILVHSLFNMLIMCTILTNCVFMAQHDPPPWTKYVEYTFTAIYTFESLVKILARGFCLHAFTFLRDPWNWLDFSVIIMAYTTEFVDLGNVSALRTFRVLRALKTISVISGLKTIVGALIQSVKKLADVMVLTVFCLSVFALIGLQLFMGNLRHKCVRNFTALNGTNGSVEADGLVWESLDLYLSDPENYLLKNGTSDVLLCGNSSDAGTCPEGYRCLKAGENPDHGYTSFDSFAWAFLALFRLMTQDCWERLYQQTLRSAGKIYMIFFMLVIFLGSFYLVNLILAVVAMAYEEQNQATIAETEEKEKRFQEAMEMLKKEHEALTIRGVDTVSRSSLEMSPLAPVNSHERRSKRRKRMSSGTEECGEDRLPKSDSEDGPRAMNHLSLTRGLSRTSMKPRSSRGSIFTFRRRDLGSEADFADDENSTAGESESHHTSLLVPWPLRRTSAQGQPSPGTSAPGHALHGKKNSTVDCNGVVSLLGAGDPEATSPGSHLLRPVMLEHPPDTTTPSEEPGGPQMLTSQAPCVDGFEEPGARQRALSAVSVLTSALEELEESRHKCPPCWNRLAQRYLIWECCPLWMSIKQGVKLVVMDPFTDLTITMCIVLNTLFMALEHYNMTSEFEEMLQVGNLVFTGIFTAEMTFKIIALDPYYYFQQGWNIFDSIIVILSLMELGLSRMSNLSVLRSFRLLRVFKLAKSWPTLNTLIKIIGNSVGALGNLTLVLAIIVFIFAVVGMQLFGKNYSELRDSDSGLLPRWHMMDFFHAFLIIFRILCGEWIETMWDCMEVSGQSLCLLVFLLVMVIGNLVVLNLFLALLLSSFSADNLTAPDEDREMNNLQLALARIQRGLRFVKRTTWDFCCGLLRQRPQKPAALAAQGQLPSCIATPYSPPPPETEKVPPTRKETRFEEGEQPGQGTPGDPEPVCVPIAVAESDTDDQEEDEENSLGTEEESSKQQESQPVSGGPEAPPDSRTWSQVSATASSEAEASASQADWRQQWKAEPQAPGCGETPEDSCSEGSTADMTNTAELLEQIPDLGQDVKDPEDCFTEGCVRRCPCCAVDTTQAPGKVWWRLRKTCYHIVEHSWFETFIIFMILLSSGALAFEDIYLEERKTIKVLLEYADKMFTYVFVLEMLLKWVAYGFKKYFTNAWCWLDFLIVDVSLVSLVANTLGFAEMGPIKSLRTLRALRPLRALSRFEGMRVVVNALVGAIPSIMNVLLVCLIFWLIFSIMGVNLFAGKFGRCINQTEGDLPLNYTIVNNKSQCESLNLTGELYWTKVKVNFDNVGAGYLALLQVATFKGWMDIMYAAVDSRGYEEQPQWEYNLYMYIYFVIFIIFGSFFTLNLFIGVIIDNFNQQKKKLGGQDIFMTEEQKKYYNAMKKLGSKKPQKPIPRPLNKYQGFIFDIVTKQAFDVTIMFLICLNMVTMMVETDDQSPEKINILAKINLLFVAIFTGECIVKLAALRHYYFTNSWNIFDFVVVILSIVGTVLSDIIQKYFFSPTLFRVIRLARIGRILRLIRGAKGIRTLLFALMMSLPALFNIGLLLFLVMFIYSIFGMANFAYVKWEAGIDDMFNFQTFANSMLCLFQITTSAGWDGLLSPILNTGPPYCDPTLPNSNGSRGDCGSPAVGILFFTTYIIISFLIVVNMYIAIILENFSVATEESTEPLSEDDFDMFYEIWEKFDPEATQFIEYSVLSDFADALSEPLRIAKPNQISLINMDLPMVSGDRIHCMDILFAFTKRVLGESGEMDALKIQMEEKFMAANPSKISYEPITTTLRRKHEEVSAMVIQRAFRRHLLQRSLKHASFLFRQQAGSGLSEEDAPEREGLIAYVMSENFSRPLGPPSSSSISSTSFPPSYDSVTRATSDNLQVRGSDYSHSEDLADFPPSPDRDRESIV

## CC(C)c1c(C(=O)Nc2ccccc2)c(-c2ccccc2)c(-c2ccc(F)cc2)n1CC[C@@H](O)C[C@@H](O)CC(=O)O [atorvastatin]
[1]
  likelihood to induce diabetes: much more likely to induce diabetes than pravastatin

## C1CCC(C(CC2CCCCN2)C2CCCCC2)CC1 (stereo not drawn) [perhexiline]
[2]
  myocardial fatty acid catabolism: causes inhibition of myocardial fatty acid catabolism

## O=C(O)C[C@H](O)C[C@H](O)/C=C/c1c(C2CC2)nc2ccccc2c1-c1ccc(F)cc1 [pitavastatin]
CYP3A4
  metabolism by CYP3A4: does not undergo metabolism by the 3A4 system

## CC[C@H](C)C(=O)O[C@H]1C[C@H](O)C=C2C=C[C@H](C)[C@H](CC[C@@H](O)C[C@@H](O)CC(=O)O)[C@H]21 [pravastatin]
other
  lipid / water solubility: water soluble

## COc1ccccc1OCC(O)CN1CCN(CC(=O)Nc2c(C)cccc2C)CC1 (stereo not drawn) [ranolazine]
QT interval; Merlin-TIMI 36
  arrhythmogenic events from QT prolongation: did not cause excess arrythmogenic events
QT interval; in vivo
  QT interval: causes QT interval prolongation
Late sodium channel
  late sodium channel inhibition: inhibits the late sodium channel

## CC(C)c1nc(N(C)S(C)(=O)=O)nc(-c2ccc(F)cc2)c1/C=C/[C@@H](O)C[C@@H](O)CC(=O)O [rosuvastatin]
[3]
  diabetes in the group receiving the statin: increase in diabetes

## COc1ccc(CN2CCNCC2)c(OC)c1OC [trimetazidine]
[4]
  inhibition of 3-KAT: inhibition of the enzyme 3-keto-CoA-thiolase
